Laboratory results reported in ChEMBL document CHEMBL4138123, “Design, synthesis and biological evaluation of novel pyrazolochalcones as potential modulators of PI3K/Akt/mTOR pathway and inducers of apoptosis in breast cancer cells” (Eur J Med Chem, 2017).

Columns and labels:
OVCAR-3 = test: Cytotoxicity against human OVCAR3 cells assessed as cell growth at 100 uM after 48 hrs by sulforhodamine B assay relative to control; format: functional; conditions: OVCAR-3, 48 h, read-out: Activity
SK-OV-3 [1] = test: Cytotoxicity against human SKOV3 cells assessed as cell growth at 10 uM after 48 hrs by sulforhodamine B assay relative to control; format: functional; conditions: SK-OV-3, 48 h, read-out: Activity
NCI-H460 [2] = test: Cytotoxicity against human NCI-H460 cells assessed as cell growth at 1 uM after 48 hrs by sulforhodamine B assay relative to control; format: functional; conditions: NCI-H460, 48 h, read-out: Activity
OVCAR-4 [3] = test: Cytotoxicity against human OVCAR4 cells assessed as cell growth at 0.01 uM after 48 hrs by sulforhodamine B assay relative to control; format: functional; conditions: OVCAR-4, 48 h, read-out: Activity
TK-10 = test: Cytotoxicity against human TK10 cells assessed as cell growth at 0.01 uM after 48 hrs by sulforhodamine B assay relative to control; format: functional; conditions: TK-10, 48 h, read-out: Activity
OVCAR-5 = test: Cytotoxicity against human OVCAR5 cells assessed as cell growth at 100 uM after 48 hrs by sulforhodamine B assay relative to control; format: functional; conditions: OVCAR-5, 48 h, read-out: Activity
A549 [4] = test: Cytotoxicity against human A549/ATCC cells assessed as cell growth at 1 uM after 48 hrs by sulforhodamine B assay relative to control; format: functional; conditions: A549, 48 h, read-out: Activity
SF-539 = test: Cytotoxicity against human SF539 cells assessed as cell growth at 10 uM after 48 hrs by sulforhodamine B assay relative to control; format: functional; conditions: SF-539, 48 h, read-out: Activity
HL-60(TB) = test: Cytotoxicity against human HL-60(TB) cells assessed as cell growth at 0.01 uM after 48 hrs by sulforhodamine B assay relative to control; format: functional; conditions: HL-60, 48 h, read-out: Activity
MDA-MB-231 [5] = test: Cytotoxicity against human MDA-MB-231 cells assessed as growth inhibition after 48 hrs by sulforhodamine B assay; format: functional; conditions: MDA-MB-231, 48 h
SF-268 [6] = test: Cytotoxicity against human SF268 cells assessed as growth inhibition after 48 hrs by sulforhodamine B assay; format: functional; conditions: SF-268, 48 h
A549 [7] = test: Cytotoxicity against human A549/ATCC cells assessed as cell growth at 100 uM after 48 hrs by sulforhodamine B assay relative to control; format: functional; conditions: A549, 48 h, read-out: Activity
HCT-116 = test: Cytotoxicity against human HCT116 cells assessed as cell growth at 100 uM after 48 hrs by sulforhodamine B assay relative to control; format: functional; conditions: HCT-116, 48 h, read-out: Activity
MDA-MB-231 [8] = test: Cytotoxicity against human MDA-MB-231 cells assessed as cell growth at 1 uM after 48 hrs by sulforhodamine B assay relative to control; format: functional; conditions: MDA-MB-231, 48 h, read-out: Activity
RXF 393 = test: Cytotoxicity against human RXF393 cells assessed as cell growth at 100 uM after 48 hrs by sulforhodamine B assay relative to control; format: functional; conditions: RXF 393, 48 h, read-out: Activity
Malme-3M = test: Cytotoxicity against human MALME-3M cells assessed as cell growth at 100 uM after 48 hrs by sulforhodamine B assay relative to control; format: functional; conditions: read-out: Activity
HOP-62 = test: Cytotoxicity against human HOP62 cells assessed as cell growth at 0.1 uM after 48 hrs by sulforhodamine B assay relative to control; format: functional; conditions: HOP-62, 48 h, read-out: Activity
MDA-MB-468 [9] = test: Cytotoxicity against human MDA-MB-468 cells assessed as cell growth at 0.1 uM after 48 hrs by sulforhodamine B assay relative to control; format: functional; conditions: MDA-MB-468, 48 h, read-out: Activity
T47D [10] = test: Cytotoxicity against human T47D cells assessed as growth inhibition after 48 hrs by sulforhodamine B assay; format: functional
MDA-MB-468 [11] = test: Cytotoxicity against human MDA-MB-468 cells assessed as cell growth at 100 uM after 48 hrs by sulforhodamine B assay relative to control; format: functional; conditions: MDA-MB-468, 48 h, read-out: Activity
MDA-MB-231 [12] = test: Cytotoxicity against human MDA-MB-231 cells assessed as growth inhibition after 48 hrs by MTT assay; format: functional, cell-based; conditions: MDA-MB-231, 48 h
SF-268 [13] = test: Cytotoxicity against human SF268 cells assessed as cell growth at 1 uM after 48 hrs by sulforhodamine B assay relative to control; format: functional; conditions: SF-268, 48 h, read-out: Activity
SW-620 = test: Cytotoxicity against human SW620 cells assessed as cell growth at 1 uM after 48 hrs by sulforhodamine B assay relative to control; format: functional; conditions: SW-620, 48 h, read-out: Activity
NCI-H23 = test: Cytotoxicity against human NCI-H23 cells assessed as cell growth at 0.01 uM after 48 hrs by sulforhodamine B assay relative to control; format: functional; conditions: NCI-H23, 48 h, read-out: Activity
NCI-H460 [14] = test: Cytotoxicity against human NCI-H460 cells assessed as cell growth at 100 uM after 48 hrs by sulforhodamine B assay relative to control; format: functional; conditions: NCI-H460, 48 h, read-out: Activity
UACC-257 = test: Cytotoxicity against human UACC257 cells assessed as cell growth at 0.1 uM after 48 hrs by sulforhodamine B assay relative to control; format: functional; conditions: UACC-257, 48 h, read-out: Activity
MDA-MB-435 = test: Cytotoxicity against human MDA-MB-435 cells assessed as growth inhibition after 48 hrs by sulforhodamine B assay; format: functional; conditions: MDA-MB-435, 48 h
SNB-19 = test: Cytotoxicity against human SNB19 cells assessed as cell growth at 100 uM after 48 hrs by sulforhodamine B assay relative to control; format: functional; conditions: SNB-19, 48 h, read-out: Activity
MDA-MB-231 [15] = test: Cytotoxicity against human MDA-MB-231 cells assessed as cell growth at 0.01 uM after 48 hrs by sulforhodamine B assay relative to control; format: functional; conditions: MDA-MB-231, 48 h, read-out: Activity
OVCAR-4 [16] = test: Cytotoxicity against human OVCAR4 cells assessed as cell growth at 1 uM after 48 hrs by sulforhodamine B assay relative to control; format: functional; conditions: OVCAR-4, 48 h, read-out: Activity
COLO 205 [17] = test: Cytotoxicity against human COLO205 cells assessed as cell growth at 1 uM after 48 hrs by sulforhodamine B assay relative to control; format: functional; conditions: COLO 205, 48 h, read-out: Activity
KM12 = test: Cytotoxicity against human KM12 cells assessed as cell growth at 0.01 uM after 48 hrs by sulforhodamine B assay relative to control; format: functional; conditions: KM12, 48 h, read-out: Activity
ACHN = test: Cytotoxicity against human ACHN cells assessed as cell growth at 1 uM after 48 hrs by sulforhodamine B assay relative to control; format: functional; conditions: read-out: Activity
COLO 205 [18] = test: Cytotoxicity against human COLO205 cells assessed as cell growth at 0.01 uM after 48 hrs by sulforhodamine B assay relative to control; format: functional; conditions: COLO 205, 48 h, read-out: Activity
SK-OV-3 [19] = test: Cytotoxicity against human SKOV3 cells assessed as cell growth at 100 uM after 48 hrs by sulforhodamine B assay relative to control; format: functional; conditions: SK-OV-3, 48 h, read-out: Activity
T47D [20] = test: Cytotoxicity against human T47D cells assessed as cell growth at 0.1 uM after 48 hrs by sulforhodamine B assay relative to control; format: functional; conditions: read-out: Activity

`COc1ccc(-c2cc(/C=C/C(=O)c3cc(OC)c(OC)c(OC)c3)[nH]n2)cc1OC` showed a growth at 100 µM (OVCAR-3) of -83%, a growth at 10 µM (SK-OV-3 [1]) of 37% and a growth at 1 µM (NCI-H460 [2]) of 52%. The growth at 0.01 µM (OVCAR-4 [3]) was 94%, the growth at 0.01 µM (TK-10) was 93% and the growth at 100 µM (OVCAR-5) was -70%. It also gave a growth at 1 µM (A549 [4]) of 82%, a growth at 10 µM (SF-539) of -85% and a growth at 0.01 µM (HL-60(TB)) of 98%. It also gave a GI50 (MDA-MB-231 [5]) of 2020 nM, an LC50 (MDA-MB-231 [5]) of 55.4 µM and a TGI (MDA-MB-231 [5]) of 13.5 µM. It also gave a GI50 (SF-268 [6]) of 1680 nM, a TGI (SF-268 [6]) of 3.9 µM and a CC50 (SF-268 [6]; read-out: LC50 (the source's name)) of 9.03 µM. The growth at 100 µM (A549 [7]) was -62%, the growth at 100 µM (HCT-116) was -61% and the growth at 1 µM (MDA-MB-231 [8]) was 67%. The growth at 100 µM (RXF 393) was -83%, the growth at 100 µM (Malme-3M) was -62% and the growth at 0.1 µM (HOP-62) was 80%. The growth at 0.1 µM (MDA-MB-468 [9]) was 91%, the GI50 (T47D [10]) was 1010 nM and the LC50 (T47D [10]) was greater than 100 µM. The TGI (T47D [10]) was 3.76 µM, the growth at 100 µM (MDA-MB-468 [11]) was -58% and the IC50 (MDA-MB-231 [12]) was 2000 nM. It also gave a growth at 1 µM (SF-268 [13]) of 81%, a growth at 1 µM (SW-620) of 70% and a growth at 0.01 µM (NCI-H23) of 94%. It also gave a growth at 100 µM (NCI-H460 [14]) of -60%, a growth at 0.1 µM (UACC-257) of 97% and a GI50 (MDA-MB-435) of 1780 nM. For the same molecule, the LC50 (MDA-MB-435) was 9.2 µM, the TGI (MDA-MB-435) was 4.05 µM and the growth at 100 µM (SNB-19) was -77%. It also gave a growth at 0.01 µM (MDA-MB-231 [15]) of 98%, a growth at 1 µM (OVCAR-4 [16]) of 66% and a growth at 1 µM (COLO 205 [17]) of 89%. For the same molecule, the growth at 0.01 µM (KM12) was 99%, the growth at 1 µM (ACHN) was 78% and the growth at 0.01 µM (COLO 205 [18]) was 99%. For the same molecule, the growth at 100 µM (SK-OV-3 [19]) was -95% and the growth at 0.1 µM (T47D [20]) was 83%.
